The target in data set [1] is T1, Sodium- and chloride-dependent glycine transporter 1 (Homo sapiens, UniProt P48067).
T1 sequence (P48067 whole entry): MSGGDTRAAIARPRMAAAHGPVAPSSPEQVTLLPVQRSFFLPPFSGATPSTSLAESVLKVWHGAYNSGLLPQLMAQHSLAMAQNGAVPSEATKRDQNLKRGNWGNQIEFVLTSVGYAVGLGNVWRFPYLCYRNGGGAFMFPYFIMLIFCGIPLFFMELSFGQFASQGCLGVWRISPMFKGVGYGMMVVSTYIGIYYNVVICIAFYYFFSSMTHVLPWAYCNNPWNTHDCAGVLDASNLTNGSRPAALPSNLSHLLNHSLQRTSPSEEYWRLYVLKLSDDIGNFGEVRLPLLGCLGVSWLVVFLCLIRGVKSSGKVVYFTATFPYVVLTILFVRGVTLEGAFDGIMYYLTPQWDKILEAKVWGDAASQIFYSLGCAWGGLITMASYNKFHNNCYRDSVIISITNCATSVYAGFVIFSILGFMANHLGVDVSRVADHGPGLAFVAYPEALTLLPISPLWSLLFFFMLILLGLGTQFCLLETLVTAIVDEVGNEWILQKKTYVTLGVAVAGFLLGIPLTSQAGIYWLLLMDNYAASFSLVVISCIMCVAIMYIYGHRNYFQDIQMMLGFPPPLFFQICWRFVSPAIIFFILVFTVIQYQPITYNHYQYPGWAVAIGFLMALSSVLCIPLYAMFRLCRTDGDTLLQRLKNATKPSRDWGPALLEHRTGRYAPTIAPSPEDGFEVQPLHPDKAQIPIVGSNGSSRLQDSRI
Nature of the data set: Inhibition of [3H]glycine uptake at GlyT1.

The target in data set [2] is T2, Sodium- and chloride-dependent glycine transporter 2 (Homo sapiens, UniProt Q9Y345).
T2 sequence (Q9Y345 whole entry): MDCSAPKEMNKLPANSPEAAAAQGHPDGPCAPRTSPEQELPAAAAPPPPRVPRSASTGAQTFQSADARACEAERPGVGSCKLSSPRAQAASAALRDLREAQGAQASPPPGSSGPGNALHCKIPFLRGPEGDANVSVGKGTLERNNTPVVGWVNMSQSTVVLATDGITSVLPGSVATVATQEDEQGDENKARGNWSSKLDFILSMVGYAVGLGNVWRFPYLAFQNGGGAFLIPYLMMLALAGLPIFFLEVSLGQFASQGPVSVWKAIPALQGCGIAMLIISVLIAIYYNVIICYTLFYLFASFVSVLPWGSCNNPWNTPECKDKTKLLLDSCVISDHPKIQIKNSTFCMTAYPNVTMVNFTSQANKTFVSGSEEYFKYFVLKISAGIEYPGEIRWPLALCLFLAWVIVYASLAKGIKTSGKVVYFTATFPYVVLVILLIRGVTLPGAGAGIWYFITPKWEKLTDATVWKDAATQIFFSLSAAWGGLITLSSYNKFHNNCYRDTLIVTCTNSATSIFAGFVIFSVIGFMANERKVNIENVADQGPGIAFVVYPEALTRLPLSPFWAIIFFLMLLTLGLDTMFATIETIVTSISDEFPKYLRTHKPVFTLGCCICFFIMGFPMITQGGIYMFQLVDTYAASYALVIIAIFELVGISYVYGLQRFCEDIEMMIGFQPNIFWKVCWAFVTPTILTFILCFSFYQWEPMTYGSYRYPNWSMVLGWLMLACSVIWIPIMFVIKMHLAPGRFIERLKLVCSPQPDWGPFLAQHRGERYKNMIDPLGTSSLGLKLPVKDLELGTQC
As to the kind of experiment: Inhibition of [3H]glycine uptake at GlyT2.

Data set [3] can be described thus: in vitro. The settings on record: mouse, microsomes, Max Achievable Bioavailability.
Description: Maximum achievable bioavailability in mouse microsome
Data set [4] is described as follows: in vitro. The settings on record: human, microsomes, Max Achievable Bioavailability.
Description: Maximum achievable bioavailability in human microsome

Where only a bound is given, the exact number is not on record here.

In general, EC50 refers to the concentration that produces a half-maximal response. A lower EC50 goes with a more potent agent. With `O=C1NCC(c2ccc(F)cc2)C12CCN(C1(c3ccc(F)cc3)CCC1)CC2` (centres undefined), in data set [1], the 50% effective concentration (EC50) was more than 30 µM.

Regarding `Cc1cccc(C2(N3CCC4(CC3)C(=O)NCC4c3ccc(F)cc3)CCCCC2)c1` (racemic), the EC50 in data set [2] was more than 30 µM; in data set [1] it was 0.563 µM.

For `O=C1NCC(c2ccc(C(F)(F)F)cc2)C12CCN(C1(c3ccc(F)cc3)CCCCC1)CC2` (racemic), the EC50 in data set [1] was 0.433 µM.

Regarding `O=C1NCC(c2ccc(F)cc2)C12CCN(C1(C3CC3)CCCCC1)CC2` (racemic), the EC50 in data set [1] was more than 30 µM.

In data set [1], `CC(C)C1(N2CCC3(CC2)C(=O)NCC3c2ccc(F)cc2)CCCCC1` (racemic) gave an EC50 of 0.787 µM.

As for `N#Cc1cccc(C2(N3CCC4(CC3)C(=O)NCC4c3ccc(F)cc3)CCCCC2)c1` (racemic), in data set [1], the concentration giving a half-maximal response (EC50) was more than 30 µM.

For the molecule `Cc1ccc(C2CNC(=O)C23CCN(C2(c4ccc(F)cc4)CCCCC2)CC3)cc1` (racemic), the EC50 in data set [1] is 0.073 µM.

In data set [1], `O=C1NCC(c2ccccc2)C12CCN(C1(C3CCCC3)CCCCC1)CC2` (racemic) came in with a half-maximal effective concentration (EC50) of 6.29 µM.

The molecule `O=C1NCC(c2ccccc2)C12CCN(C1(C3CC3)CCCCC1)CC2` (racemic) returned a concentration for a half-maximal effect (EC50) in data set [1] of more than 30 µM.

Regarding `CC(C)C1(N2CCC3(CC2)C(=O)NCC3c2ccccc2)CCCCC1` (racemic), the EC50 in data set [1] stood at 0.97 µM.

The molecule `O=C1NCC(c2ccc(F)cc2)C12CCN(C1(c3ccc(F)cc3)CCCCC1)CC2` (racemic) gave an EC50 in data set [2] of more than 30 µM.

`CC(C)=CC1(N2CCC3(CC2)C(=O)NCC3c2ccccc2)CCCCC1` (racemic) showed a half-maximal effective concentration (EC50) in data set [1] of 0.979 µM.

For the molecule `Cc1ccc(C2CNC(=O)C23CCN(C2(c4ccccc4)CCCCC2)CC3)cc1` (racemic), in data set [1], the EC50 was 0.139 µM.

As for `Cc1ccccc1C1(N2CCC3(CC2)C(=O)NCC3c2ccc(F)cc2)CCCCC1` (racemic), the EC50 in data set [2] is more than 30 µM; in data set [1] it was 0.35 µM.

Molecule `CCCC1CNC(=O)C12CCN(C1(c3cccs3)CCCCC1)CC2` (racemic) came in with an EC50 in data set [1] of 0.229 µM.

As to `O=C1NCC(c2ccccc2)C12CCN(C1(c3cccs3)CCCCC1)CC2` (racemic), in data set [1], the concentration for a half-maximal effect (EC50) stood at 0.147 µM.

In the case of `O=C1NCC(c2ccccc2)C12CCN(C1(c3ccc(OC(F)(F)F)cc3)CCCCC1)CC2` (racemic), the midpoint of the response in data set [1], the EC50, lay at 4.56 µM.

`O=C1NCC(c2ccccc2)C12CCN(C1(c3ccsc3)CCCCC1)CC2` (racemic) registered an EC50 in data set [1] of 0.682 µM.

The molecule `CCCC1CNC(=O)C12CCN(C1(c3ccc(C)s3)CCCCC1)CC2` (racemic) displayed an EC50 in data set [1] of 0.113 µM.

`O=C1NCC(c2ccccc2)C12CCN(C1(C3CCCCC3)CCCCC1)CC2` (racemic): in data set [1], the response was half-maximal at 15.2 µM (EC50).

Regarding `O=C1NCC(c2ccc(F)cc2)C12CCN(C1(c3cccc(F)c3)CCCCC1)CC2` (racemic), the EC50 is more than 30 µM in data set [2] and 0.393 µM in data set [1].

In data set [1], `CCC1(N2CCC3(CC2)C(=O)NCC3c2ccc(F)cc2)CCCCC1` (racemic) had an EC50 of 1.47 µM.

In data set [1], `Cc1cccc(C2(N3CCC4(CC3)C(=O)NCC4c3ccc(F)cc3)CCCCC2)c1` (single isomer, unassigned; diastereomer 1) had an EC50 of 4 µM.

As to `O=C1NCC(c2ccccc2)C12CCN(C1(c3ccc(Cl)cc3)CCCCC1)CC2` (single isomer, unassigned; diastereomer 1), the EC50 in data set [2] is more than 30 µM.

For `O=C1NCC(c2ccccc2)C12CCN(C1(c3ccccc3)CCOCC1)CC2` (single isomer, unassigned; diastereomer 1), the EC50 in data set [1] worked out at 3.66 µM.

Molecule `COc1cccc(C2(N3CCC4(CC3)C(=O)NCC4c3ccccc3)CCCCC2)c1` (single isomer, unassigned; diastereomer 1) returned an EC50 in data set [1] of 5.61 µM.

In data set [1], `N#Cc1ccc(C2(N3CCC4(CC3)C(=O)NCC4c3ccccc3)CCCCC2)cc1` (single isomer, unassigned; diastereomer 1) had an EC50 of more than 30 µM.

`O=C1NCC(c2ccccc2)C12CCN(C1(c3ccccc3)CCCCC1)CC2` (single isomer, unassigned; diastereomer 1): the 50% effective concentration (EC50) in data set [2] was more than 30 µM.

Regarding `O=C1NCC(c2ccccc2)C12CCN(C1(c3ccc(C(F)(F)F)cc3)CCCCC1)CC2` (single isomer, unassigned; diastereomer 1), the midpoint of the response in data set [1], the EC50, lay at 1.21 µM.

`O=C1NCC(c2ccc(F)cc2)C12CCN(C1(c3ccsc3)CCCCC1)CC2` (single isomer, unassigned; diastereomer 1): in data set [1], the concentration for a half-maximal effect (EC50) came to 0.213 µM.

As for `O=C1NCC(c2ccccc2)C12CCN(C1(c3cccc(F)c3)CCCCC1)CC2` (single isomer, unassigned; diastereomer 1), the EC50 in data set [2] is more than 30 µM; in data set [1] it was 0.423 µM.

For the molecule `Cc1ccc(C2(N3CCC4(CC3)C(=O)NCC4c3ccc(F)cc3)CCCCC2)cc1` (single isomer, unassigned; diastereomer 1), the half-maximal effective concentration (EC50) in data set [1] was determined as 1.47 µM.

Take `F.O=C1NCC(c2ccc(F)cc2)C12CCN(C1(c3ccc(F)cc3)CCCCC1)CC2` (single isomer, unassigned; diastereomer 1): the EC50 in data set [2] is more than 30 µM. The values for the Fh in the data set “in vitro [3]” and in “in vitro [4]” were 46% and 67%, respectively.

Regarding `Cc1cccc(C2(N3CCC4(CC3)C(=O)NCC4c3ccc(F)cc3)CCCCC2)c1` (single isomer, unassigned; diastereomer 2), the values for the EC50 in data set [2] and in data set [1] were more than 30 µM and 0.949 µM, respectively.

`O=C1NCC(c2ccccc2)C12CCN(C1(c3ccc(Cl)cc3)CCCCC1)CC2` (single isomer, unassigned; diastereomer 2) gave an EC50 in data set [2] of more than 30 µM.

For the molecule `Cc1ccc(C2(N3CCC4(CC3)C(=O)NCC4c3ccccc3)CCCCC2)cc1` (single isomer, unassigned; diastereomer 2), the EC50 is more than 30 µM in data set [2] and 0.48 µM in data set [1].

The molecule `COc1cccc(C2(N3CCC4(CC3)C(=O)NCC4c3ccccc3)CCCCC2)c1` (single isomer, unassigned; diastereomer 2) registered a concentration giving a half-maximal response (EC50) in data set [1] of 26.2 µM.

For the molecule `O=C1NCC(c2ccc(F)cc2)C12CCN(C1(c3cccc(OC(F)(F)F)c3)CCCCC1)CC2` (single isomer, unassigned; diastereomer 2), a half-maximal response in data set [1] (EC50) required 21.5 µM.

`O=C1NCC(c2ccccc2)C12CCN(C1(c3ccccc3)CCCCC1)CC2` (single isomer, unassigned; diastereomer 2): the EC50 in data set [2] is more than 30 µM.

For `O=C1NCC(c2ccccc2)C12CCN(C1(c3cccc(F)c3)CCCCC1)CC2` (single isomer, unassigned; diastereomer 2), the results for the EC50 in data set [2] and in data set [1] were more than 30 µM and 0.684 µM, respectively.

Take `Cc1ccc(C2(N3CCC4(CC3)C(=O)NCC4c3ccc(F)cc3)CCCCC2)cc1` (single isomer, unassigned; diastereomer 2): the EC50 in data set [1] is 0.419 µM.

Regarding `O=C1NCC(c2ccccc2)C12CCN(C1(c3ccc(C(F)(F)F)cc3)CCCCC1)CC2` (single isomer, unassigned; diastereomer 2), the EC50 in data set [1] came to 6.97 µM.

Consider `O=C1NCC(c2ccccc2)C12CCN(C1(c3ccccc3)CCOCC1)CC2` (single isomer, unassigned; diastereomer 4), for which the EC50 in data set [1] is 0.525 µM.

On to `Cc1ccc(C2(N3CCC4(CC3)C(=O)NCC4c3ccccc3)CCCCC2)cc1` (stereo in doubt), for which the 50% effective concentration (EC50) in data set [2] was more than 30 µM; in data set [1], 0.284 µM.

In turn, `N#Cc1ccc(C2(N3CCC4(CC3)C(=O)NCC4c3ccccc3)CCCCC2)cc1` (stereo in doubt) returned an EC50 in data set [1] of 16 µM.

For the molecule `O=C1NCC(c2ccc(F)cc2)C12CCN(C1(c3cccc(OC(F)(F)F)c3)CCCCC1)CC2` (stereo in doubt), the midpoint of the response in data set [1], the EC50, lay at 16.7 µM.

`O=C1NCC(c2ccc(F)cc2)C12CCN(C1(c3ccsc3)CCCCC1)CC2` (stereo in doubt) gave an EC50 in data set [1] of 0.099 µM.

As to `O=C1NCC(c2ccccc2)C12CCN(C1(c3ccccc3)CCOCC1)CC2` (stereo in doubt; form 1), the response in data set [1] was half-maximal at 7.29 µM (EC50).

`O=C1NCC(c2ccccc2)C12CCN(C1(c3ccccc3)CCOCC1)CC2` (stereo in doubt; form 2): in data set [1], the EC50 is more than 30 µM.

Source of the values: ChEMBL document CHEMBL1145308 (Bioorg Med Chem Lett, 2006).
